molecular target: T1, human NEP (Homo sapiens, UniProt P08473); assay: In vitro enzyme inhibition assay at human NEP (Assay 1); format: biochemical; settings: recombinant enzyme, fluorogenic peptide substrate, 37° C.
T1 construct: purchased R&D Systems, Minneapolis, Minn; 1182-ZN
Procedure: In Vitro Assays for the Quantitation of Inhibitor Potencies (IC50) at Human and Rat NEP, and Human ACE
The inhibitory activities of compounds at human and rat neprilysin (EC 3.4.24.11; NEP) and human angiotensin converting enzyme (ACE) were determined using in vitro assays as described below.
Recombinant human NEP and recombinant human ACE were obtained commercially (R&D Systems, Minneapolis, Minn., catalog numbers 1182-ZN and 929-ZN, respectively). The fluorogenic peptide substrate Mca-D-Arg-Arg-Leu-Dap-(Dnp)-OH (Medeiros et al. (1997) Braz. J. Med. Biol. Res. 30:1157-62; Anaspec, San Jose, Calif.) and Abz-Phe-Arg-Lys(Dnp)-Pro-OH (Araujo et al. (2000) Biochemistry 39:8519-8525; Bachem, Torrance, Calif.) were used in the NEP and ACE assays respectively.
The assays were performed in 384-well white opaque plates at 37° C. using the fluorogenic peptide substrates at a concentration of 10 μM in Assay Buffer (NEP: 50 mM HEPES, pH 7.5, 100 mM NaCl, 0.01% polyethylene glycol sorbitan monolaurate (Tween-20), 10 μM ZnSO4; ACE: 50 mM HEPES, pH 7.5, 100 mM NaCl, 0.01% Tween-20, 1 μM ZnSO4).
Test compounds were assayed over the range of concentrations from […] to 20 μM. Test compounds were added to the enzymes and incubated for 30 minute at 37° C. prior to initiating the reaction by the addition of substrate. Reactions were terminated after 20 minutes of incubation at 37° C. by the addition of glacial acetic acid to a final concentration of 3.6% (v/v).
Plates were read on a fluorometer with excitation and emission wavelengths set to 320 nm and 405 nm, respectively. Inhibition constants were obtained by nonlinear regression of the data using the equation (GraphPad Software, Inc., San Diego, Calif.): v=v0/[1+(I/K′)] where v is the reaction rate, v0 is the uninhibited reaction rate, I is the inhibitor concentration and K′ is the apparent inhibition constant.
Compounds of the invention were tested in this assay and found to have pKi values at human NEP as follows.

T1 sequence (P08473 whole entry): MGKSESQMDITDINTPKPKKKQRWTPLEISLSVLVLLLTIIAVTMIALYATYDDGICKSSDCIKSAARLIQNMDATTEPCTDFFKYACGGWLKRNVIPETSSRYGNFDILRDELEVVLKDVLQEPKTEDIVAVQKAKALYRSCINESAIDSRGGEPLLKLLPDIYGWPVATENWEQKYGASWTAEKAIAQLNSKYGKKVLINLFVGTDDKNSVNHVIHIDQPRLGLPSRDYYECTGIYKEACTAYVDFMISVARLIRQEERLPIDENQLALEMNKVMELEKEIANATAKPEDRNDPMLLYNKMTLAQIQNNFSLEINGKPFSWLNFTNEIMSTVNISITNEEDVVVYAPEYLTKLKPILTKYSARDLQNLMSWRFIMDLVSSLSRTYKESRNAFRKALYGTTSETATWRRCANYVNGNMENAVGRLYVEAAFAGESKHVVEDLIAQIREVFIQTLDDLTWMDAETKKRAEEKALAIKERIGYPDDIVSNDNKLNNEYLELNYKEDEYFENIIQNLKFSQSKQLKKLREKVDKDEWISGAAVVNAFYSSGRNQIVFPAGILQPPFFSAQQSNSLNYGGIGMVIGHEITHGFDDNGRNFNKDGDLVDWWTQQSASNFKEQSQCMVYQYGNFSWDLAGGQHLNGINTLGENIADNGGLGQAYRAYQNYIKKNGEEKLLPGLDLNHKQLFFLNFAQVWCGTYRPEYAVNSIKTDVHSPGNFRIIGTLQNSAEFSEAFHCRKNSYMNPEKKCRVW

Compared with `O=C(NN(Cc1ccc(-c2cccc(Cl)c2)cc1)C[C@@H](O)C(=O)O)c1cc(-c2ccccc2Cl)n[nH]1` [Example 4-15, (R)-3-{N-(3′-Chlorobiphenyl-4-ylmethyl)-N′-[5-(2-chlorophenyl)-2H-pyrazole-3-carbonyl]-hydrazino}-2-hydroxy-propionic acid], `O=C(NN(Cc1ccc(-c2cccc(Cl)c2)cc1)C[C@@H](O)C(=O)O)c1cc(-c2ccccc2O)n[nH]1` [Example 4-19, (R)-3-{N-(3′-Chlorobiphenyl-4-ylmethyl)-N′-[5-(2-hydroxy-phenyl)-2H-pyrazole-3-carbonyl]-hydrazino}-2-hydroxy-propionic acid] is higher in Ki: no more than 1 nM for the first, 1.26 to 10 nM for the second. The first binds more tightly here.

`CC(C)CN(C)C(=O)c1cc(C(=O)NN(Cc2ccc(-c3cccc(Cl)c3)cc2)C[C@@H](O)C(=O)O)[nH]n1` [Example 4-16, (R)-3-{N-(3′-Chlorobiphenyl-4-ylmethyl)-N′-[5-(isobutyl-methyl-carbamoyl)-2H-pyrazole-3-carbonyl]-hydrazino}-2-hydroxy-propionic acid] and `CN(CC1CC1)C(=O)c1cc(C(=O)NN(Cc2ccc(-c3cccc(Cl)c3)cc2)C[C@@H](O)C(=O)O)[nH]n1` [Example 4-17, (R)-3-{N-(3′-Chlorobiphenyl-4-ylmethyl)-N′-[5-(cyclopropylmethyl-methyl-carbamoyl)-2H-pyrazole-3-carbonyl]-hydrazino}-2-hydroxy-propionic acid] cannot be ordered by Ki: no more than 1 nM for the first, no more than 1 nM for the second.

`O=C(NN(Cc1ccc(-c2cccc(Cl)c2)cc1)C[C@@H](O)C(=O)O)c1cc(C(=O)N2CC(F)C2)n[nH]1` [Example 4-18, (R)-3-{N-(3′-Chlorobiphenyl-4-ylmethyl)-N′-[5-(3-fluoroazetidine-1-carbonyl)-2H-pyrazole-3-carbonyl]-hydrazino}-2-hydroxy-propionic acid] and `O=C(O)c1cc(C(=O)NN(Cc2ccc(-c3cccc(Cl)c3)cc2)C[C@@H](O)C(=O)O)[nH]n1` [Example 4-23, 5-[N′-((R)-2-Carboxy-2-hydroxy-ethyl)-N′-(3′-chlorobiphenyl-4-ylmethyl)-hydrazinocarbonyl]-1H-pyrazole-3-carboxylic acid] cannot be ordered by Ki: no more than 1 nM for the first, no more than 1 nM for the second.

`COc1ccccc1-c1cc(C(=O)NN(Cc2ccc(-c3cccc(Cl)c3)cc2)C[C@@H](O)C(=O)O)[nH]n1` [Example 4-20, (R)-3-{N-(3′-Chlorobiphenyl-4-ylmethyl)-N′-[5-(2-methoxy-phenyl)-2H-pyrazole-3-carbonyl]-hydrazino}-2-hydroxy-propionic acid] and `COc1ccccc1-c1cc(C(=O)NN(Cc2ccc(-c3cccc(Cl)c3)cc2)C[C@@H](O)C(=O)O)on1` [Example 4-30, (R)-3-{N-(3′-Chlorobiphenyl-4-ylmethyl)-N′-[3-(2-methoxy-phenyl)-isoxazole-5-carbonyl]-hydrazino}-2-hydroxy-propionic acid] fall in the same range of Ki: 1.26 to 10 nM for the first, 1.26 to 10 nM for the second.

`O=C(NN(Cc1ccc(-c2cccc(Cl)c2)cc1)C[C@@H](O)C(=O)O)c1cc(-c2ccccn2)n[nH]1` [Example 4-21, (R)-3-[N-(3′-Chlorobiphenyl-4-ylmethyl)-N′-(5-pyridin-2-yl-2H-pyrazole-3-carbonyl)-hydrazino]-2-hydroxy-propionic acid] and `O=C(NN(Cc1ccc(-c2cccc(Cl)c2)cc1)C[C@@H](O)C(=O)O)c1cc(-c2cnccn2)n[nH]1` [Example 4-24, (R)-3-[N-(3′-Chlorobiphenyl-4-ylmethyl)-N′-(5-pyrazin-2-yl-2H-pyrazole-3-carbonyl)-hydrazino]-2-hydroxy-propionic acid] fall in the same range of Ki: 1.26 to 10 nM for the first, 1.26 to 10 nM for the second.

First: CCCCc1cc(C(=O)NN(Cc2ccc(-c3cccc(Cl)c3)cc2)C[C@@H](O)C(=O)O)[nH]n1 [Example 4-22, (R)-3-[N′-(5-Butyl-2H-pyrazole-3-carbonyl)-N-(3′-chlorobiphenyl-4-ylmethyl)-hydrazino]-2-hydroxy-propionic acid]
Second: COCc1cc(C(=O)NN(Cc2ccc(-c3cccc(Cl)c3)cc2)C[C@@H](O)C(=O)O)[nH]n1 [Example 4-26, (R)-3-[N-(3′-Chlorobiphenyl-4-ylmethyl)-N′-(5-methoxymethyl-2H-pyrazole-3-carbonyl)-hydrazino]-2-hydroxy-propionic acid]
The Ki of the first is lower: no more than 1 nM for the first, 1.26 to 10 nM for the second.

Compared with `CC(=O)c1cc(C(=O)NN(Cc2ccc(-c3cccc(Cl)c3)cc2)C[C@@H](O)C(=O)O)[nH]n1` [Example 4-25, (R)-3-[N′-(5-Acetyl-2H-pyrazole-3-carbonyl)-N-(3′-chlorobiphenyl-4-ylmethyl)-hydrazino]-2-hydroxy-propionic acid], `CC(C)(O)c1cc(C(=O)NN(Cc2ccc(-c3cccc(Cl)c3)cc2)C[C@@H](O)C(=O)O)[nH]n1` [Example 4-27, (R)-3-{N-(3′-Chlorobiphenyl-4-ylmethyl)-N′-[5-(1-hydroxy-1-methyl-ethyl)-2H-pyrazole-3-carbonyl]-hydrazino}-2-hydroxy-propionic acid] is higher in Ki: no more than 1 nM for the first, 1.26 to 10 nM for the second.

Compared with `O=C(NN(Cc1ccc(-c2cccc(Cl)c2)cc1)C[C@@H](O)C(=O)O)c1cnc(-c2ccccc2)o1` [Example 4-28, (R)-3-[N-(3′-Chlorobiphenyl-4-ylmethyl)-N′-(2-phenyl-oxazole-5-carbonyl)-hydrazino]-2-hydroxy-propionic acid], `O=C(NN(Cc1ccc(-c2cccc(Cl)c2)cc1)C[C@@H](O)C(=O)O)c1cc(-c2ccccc2Cl)no1` [Example 4-29, (R)-3-{N-(3′-Chlorobiphenyl-4-ylmethyl)-N′-[3-(2-chlorophenyl)-isoxazole-5-carbonyl]-hydrazino}-2-hydroxy-propionic acid] is lower in Ki: 12.6 to 100 nM for the first, no more than 1 nM for the second. The second binds more tightly here.

`O=C(NN(Cc1ccc(-c2cccc(Cl)c2)cc1)C[C@@H](O)C(=O)O)c1cc(-c2ccccc2F)no1` [Example 4-31, (R)-3-{N-(3′-Chlorobiphenyl-4-ylmethyl)-N′-[3-(2-fluorophenyl)-isoxazole-5-carbonyl]-hydrazino}-2-hydroxy-propionic acid] and `COc1cc(C(=O)NN(Cc2ccc(-c3cccc(Cl)c3)cc2)C[C@@H](O)C(=O)O)on1` [Example 4-32, (R)-3-[N-(3′-Chlorobiphenyl-4-ylmethyl)-N′-(3-methoxy-isoxazole-5-carbonyl)-hydrazino]-2-hydroxy-propionic acid] fall in the same range of Ki: 1.26 to 10 nM for the first, 1.26 to 10 nM for the second.

First: O=C(NN(Cc1ccc(-c2cccc(Cl)c2)cc1)C[C@@H](O)C(=O)O)c1cnc(O)nc1 [Example 4-34, (R)-3-[N-(3′-Chlorobiphenyl-4-ylmethyl)-N′-(2-hydroxy-pyrimidine-5-carbonyl)-hydrazino]-2-hydroxy-propionic acid]
Second: O=C(NN(Cc1ccc(-c2cccc(Cl)c2)cc1)C[C@@H](O)C(=O)O)c1ccnc(O)n1 [Example 4-37, (R)-3-[N-(3′-Chlorobiphenyl-4-ylmethyl)-N′-(2-hydroxy-pyrimidine-4-carbonyl)-hydrazino]-2-hydroxy-propionic acid]
The Ki of the first is lower: no more than 1 nM for the first, 12.6 to 100 nM for the second.

`O=C(O)c1cc(C(=O)NN(Cc2ccc(-c3cccc(Cl)c3)cc2)C[C@@H](O)C(=O)O)ncn1` [Example 4-35, 6-[N′-((R)-2-Carboxy-2-hydroxy-ethyl)-N′-(3′-chlorobiphenyl-4-ylmethyl)-hydrazinocarbonyl]-pyrimidine-4-carboxylic acid] and `O=C(O)c1cc(C(=O)NN(Cc2ccc(-c3cccc(Cl)c3)cc2)C[C@@H](O)C(=O)O)nc(O)n1` [Example 4-38, 6-[N′-((R)-2-Carboxy-2-hydroxy-ethyl)-N′-(3′-chlorobiphenyl-4-ylmethyl)-hydrazinocarbonyl]-2-hydroxy-pyrimidine-4-carboxylic acid] cannot be ordered by Ki: no more than 1 nM for the first, no more than 1 nM for the second.

First: O=C(NN(Cc1ccc(-c2cccc(Cl)c2)cc1)C[C@@H](O)C(=O)O)c1cc(O)nc(O)n1 [Example 4-36, (R)-3-[N-(3′-Chlorobiphenyl-4-ylmethyl)-N′-(2,6-dihydroxy-pyrimidine-4-carbonyl)-hydrazino]-2-hydroxy-propionic acid]
Second: O=C(NN(Cc1ccc(-c2cccc(Cl)c2)cc1)C[C@@H](O)C(=O)O)c1cnc(O)s1 [Example 4-40, (R)-3-[N-(3′-Chlorobiphenyl-4-ylmethyl)-N′-(2-hydroxy-thiazole-5-carbonyl)-hydrazino]-2-hydroxy-propionic acid]
The Ki of the first is higher: 12.6 to 100 nM for the first, 1.26 to 10 nM for the second.

`O=C(NN(Cc1ccc(-c2cccc(Cl)c2)cc1)C[C@@H](O)C(=O)O)c1c[nH]c(=O)o1` [Example 4-39, (R)-3-[N-(3′-Chlorobiphenyl-4-ylmethyl)-N′-(2-oxo-2,3-dihydro-oxazole-5-carbonyl)-hydrazino]-2-hydroxy-propionic acid] and `O=C(NN(Cc1ccc(-c2cccc(Cl)c2)cc1)C[C@@H](O)C(=O)O)c1ccc2[nH]nnc2c1F` [Example 4-42, (R)-3-[N-(3′-Chlorobiphenyl-4-ylmethyl)-N′-(4-fluoro-1H-benzotriazole-5-carbonyl)-hydrazino]-2-hydroxy-propionic acid] fall in the same range of Ki: 1.26 to 10 nM for the first, 1.26 to 10 nM for the second.

— patent publication US9873696B2, “Neprilysin inhibitors” (THERAVANCE BIOPHARMA R&D IP, LLC, priority 2010, dated 2018)
